Source: ChEMBL document CHEMBL3407435, “N-Methyl-N-((1-methyl-5-(3-(1-(2-methylbenzyl)piperidin-4-yl)propoxy)-1H-indol-2-yl)methyl)prop-2-yn-1-amine, a new cholinesterase and monoamine oxidase dual inhibitor” (J Med Chem, 2014)
Active and inactive are the calls of the source. No cut-off for these calls is given here.

Legend:
[1] = target: T1, Amine oxidase [flavin-containing] B (Homo sapiens, UniProt P27338); experiment: Inhibition of human MAO-B expressed in baculovirus infected BTI insect cells preincubated for 15 mins; format: cell-based
T1 sequence (P27338 whole entry): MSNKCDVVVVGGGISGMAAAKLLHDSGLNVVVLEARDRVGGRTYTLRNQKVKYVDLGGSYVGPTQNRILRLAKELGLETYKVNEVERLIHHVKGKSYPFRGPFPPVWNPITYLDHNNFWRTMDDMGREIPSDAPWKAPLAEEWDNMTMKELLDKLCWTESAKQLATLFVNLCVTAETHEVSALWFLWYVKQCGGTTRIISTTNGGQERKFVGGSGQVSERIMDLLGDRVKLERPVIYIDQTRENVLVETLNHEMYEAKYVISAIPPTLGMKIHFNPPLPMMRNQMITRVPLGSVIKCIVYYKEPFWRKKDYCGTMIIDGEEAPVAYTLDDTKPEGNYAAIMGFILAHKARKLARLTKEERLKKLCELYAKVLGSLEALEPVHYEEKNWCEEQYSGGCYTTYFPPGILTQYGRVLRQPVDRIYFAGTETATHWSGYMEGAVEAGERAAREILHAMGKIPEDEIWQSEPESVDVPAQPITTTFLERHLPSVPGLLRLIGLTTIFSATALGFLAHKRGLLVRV

[2] = target: T2, Cholinesterase (Homo sapiens, UniProt P06276); experiment: Inhibition of recombinant human BuChE expressed in HEK293 cells preincubated for 15 mins; format: cell-based
[3] = species on record: Homo sapiens; experiment: Selectivity ratio of IC50 for human MAO-A expressed in baculovirus infected BTI insect cells to IC50 for human MAO-B expressed in baculovirus infected BTI insect cells
[4] = target: T3, Amine oxidase [flavin-containing] A (Homo sapiens, UniProt P21397); experiment: Inhibition of human MAO-A expressed in baculovirus infected BTI insect cells preincubated for 15 mins
T3 sequence (P21397 whole entry): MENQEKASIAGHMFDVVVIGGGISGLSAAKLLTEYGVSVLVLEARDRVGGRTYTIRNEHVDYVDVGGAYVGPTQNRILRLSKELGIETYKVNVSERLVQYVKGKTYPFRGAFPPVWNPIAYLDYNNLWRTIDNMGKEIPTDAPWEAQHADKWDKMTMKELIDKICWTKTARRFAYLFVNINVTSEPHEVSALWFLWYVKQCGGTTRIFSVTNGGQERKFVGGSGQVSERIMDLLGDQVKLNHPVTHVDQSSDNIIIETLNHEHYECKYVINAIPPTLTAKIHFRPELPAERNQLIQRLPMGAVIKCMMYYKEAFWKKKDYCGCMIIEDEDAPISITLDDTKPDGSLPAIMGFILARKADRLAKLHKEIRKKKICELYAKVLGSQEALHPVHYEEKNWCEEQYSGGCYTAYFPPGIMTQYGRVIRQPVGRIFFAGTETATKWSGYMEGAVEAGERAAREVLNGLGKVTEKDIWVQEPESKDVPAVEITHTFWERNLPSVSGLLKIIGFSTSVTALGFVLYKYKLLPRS

[5] = system: HEK293; experiment: Selectivity ratio of IC50 for recombinant human AChE expressed in HEK293 cells to IC50 for recombinant human BuChE expressed in HEK293 cells; format: cell-based
[6] = target: T4, Acetylcholinesterase (Homo sapiens, UniProt P22303); experiment: Inhibition of recombinant human AChE expressed in HEK293 cells preincubated for 15 mins; format: cell-based
[7] = target: T3, Amine oxidase [flavin-containing] A; experiment: Inhibition of human MAO-A expressed in baculovirus infected BTI insect cells preincubated at 100 uM for 15 mins
[8] = target: T1, Amine oxidase [flavin-containing] B; experiment: Inhibition of human MAO-B expressed in baculovirus infected BTI insect cells preincubated at 100 uM for 15 mins
[9] = target: T2, Cholinesterase; experiment: Inhibition of recombinant human BuChE expressed in HEK293 cells preincubated at 100 uM for 15 mins; format: cell-based
[10] = target: T4, Acetylcholinesterase; experiment: Inhibition of recombinant human AChE expressed in HEK293 cells preincubated at 100 uM for 15 mins; format: cell-based
[11] = target: T1, Amine oxidase [flavin-containing] B; experiment: Irreversible inhibition of human MAO-B expressed in baculovirus infected BTI insect cells compound incubated at 10 times IC50 for 30 mins followed by 100 fold dilution relative to control; conditions: 0.5 h
[12] = target: T2, Cholinesterase; experiment: Inhibition of recombinant human BuChE expressed in HEK293 cells assessed as enzyme recovery compound incubated at 10 times IC50 for 30 mins followed by 100 fold dilution relative to control; format: cell-based; design: scale not given: the % may be the effect or the level left
[13] = target: T3, Amine oxidase [flavin-containing] A; experiment: Reversible inhibition of human MAO-A expressed in baculovirus infected BTI insect cells
[14] = target: T3, Amine oxidase [flavin-containing] A; experiment: Irreversible inhibition of human MAO-A expressed in baculovirus infected BTI insect cells compound incubated at 10 times IC50 for 30 mins followed by 100 fold dilution relative to control; conditions: 0.5 h
[15] = Permeability of the compound by PAMPA-BBB method in presence of PBS:ethanol at 70:30 ratio; format: ADME; conditions: read-out: permeability
[16] = target: T4, Acetylcholinesterase; experiment: Inhibition of recombinant human AChE expressed in HEK293 cells assessed as enzyme recovery compound incubated at 10 times IC50 for 30 mins followed by 100 fold dilution relative to control; format: cell-based; design: scale not given: the % may be the effect or the level left

T4 sequence (P22303 whole entry): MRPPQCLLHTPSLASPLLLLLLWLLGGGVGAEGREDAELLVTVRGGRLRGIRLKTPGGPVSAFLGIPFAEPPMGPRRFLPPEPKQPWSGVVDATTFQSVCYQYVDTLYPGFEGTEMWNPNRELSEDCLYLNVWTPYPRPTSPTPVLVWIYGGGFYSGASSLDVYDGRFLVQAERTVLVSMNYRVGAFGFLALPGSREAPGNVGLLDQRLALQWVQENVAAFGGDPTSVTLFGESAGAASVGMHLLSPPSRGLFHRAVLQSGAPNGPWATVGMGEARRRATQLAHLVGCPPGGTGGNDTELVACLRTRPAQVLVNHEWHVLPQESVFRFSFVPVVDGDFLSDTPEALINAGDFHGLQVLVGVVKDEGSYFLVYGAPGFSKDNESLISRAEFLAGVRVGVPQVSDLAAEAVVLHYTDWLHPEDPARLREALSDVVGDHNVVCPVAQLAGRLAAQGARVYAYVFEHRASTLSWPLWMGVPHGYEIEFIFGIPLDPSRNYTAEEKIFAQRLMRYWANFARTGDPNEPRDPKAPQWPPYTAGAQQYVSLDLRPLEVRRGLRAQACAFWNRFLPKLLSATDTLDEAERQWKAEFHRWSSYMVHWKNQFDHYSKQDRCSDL
T2 sequence (P06276 whole entry): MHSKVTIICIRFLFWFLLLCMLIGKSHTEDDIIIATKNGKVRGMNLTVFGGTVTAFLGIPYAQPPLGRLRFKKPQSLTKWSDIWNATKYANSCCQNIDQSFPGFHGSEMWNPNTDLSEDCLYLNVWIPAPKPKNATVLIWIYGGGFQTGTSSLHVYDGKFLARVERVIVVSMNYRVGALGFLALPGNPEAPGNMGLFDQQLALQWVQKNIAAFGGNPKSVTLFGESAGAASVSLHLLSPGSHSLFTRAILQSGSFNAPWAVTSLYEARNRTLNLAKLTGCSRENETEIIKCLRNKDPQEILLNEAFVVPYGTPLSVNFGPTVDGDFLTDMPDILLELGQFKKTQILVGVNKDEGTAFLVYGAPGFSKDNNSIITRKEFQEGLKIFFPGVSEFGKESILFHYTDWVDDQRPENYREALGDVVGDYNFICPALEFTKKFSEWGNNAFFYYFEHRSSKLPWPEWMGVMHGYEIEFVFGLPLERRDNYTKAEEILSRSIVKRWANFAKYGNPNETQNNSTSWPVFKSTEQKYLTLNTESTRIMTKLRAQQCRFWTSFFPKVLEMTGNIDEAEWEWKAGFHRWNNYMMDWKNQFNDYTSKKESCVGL

Row | Structure (SMILES) | IC50 [1] | IC50 [2] | Ratio IC50 [3] | IC50 [4] | Ratio IC50 [5] | IC50 [6] | other results
1 | C#CCNCc1cc2cc(OCCCC3CCN(Cc4ccccc4)CC3)ccc2[nH]1 | 33.6 µM | 7.3 µM | 0.57 | 19.2 µM | 0.67 | 4.9 µM | –
2 | OCc1cc2cc(OCCCC3CCN(Cc4ccccc4)CC3)ccc2[nH]1 | 13.5 µM | 31.2 µM | 0.67 | 9.1 µM | 0.43 | 13.6 µM | –
3 | C#CCN(C)Cc1cc2cc(OCCCC3CCN(Cc4ccc(OC)c5ncccc45)CC3)ccc2n1C | 7.9 µM | – | – | 10.3 µM | – | – | inhibition at 100 µM [7]: 40%; inhibition at 100 µM [8]: 40%; inhibition [9]: inactive
4 | CCOC(=O)c1cc2cc(OCCCC3CCN(Cc4ccccc4)CC3)ccc2[nH]1 | 1 µM | 9.7 µM | 0.87 | 0.877 µM | 0.99 | 9.6 µM | –
5 | C=CCNCc1cc2cc(OCCCC3CCN(Cc4ccccc4)CC3)ccc2[nH]1 | 21.3 µM | 40.6 µM | 2.1 | 45.3 µM | 0.11 | 4.6 µM | –
6 | C#CCN(C)Cc1ccc(OC(=O)N(C)C)c2ncccc12 | – | 7.9 µM | – | – | – | 0.52 µM | –
7 | C#CCN(C)Cc1cc2cc(OCc3ccc(OC(=O)N(C)C)c4ncccc34)ccc2n1C | 273 µM | – | – | 311 µM | – | – | inhibition [10]: inactive; inhibition [9]: inactive
8 | C#CCN(C)Cc1cc2cc(OCCCC3CCN(Cc4ccc(OC(=O)N(C)C)c5ncccc45)CC3)ccc2n1C | 0.196 µM | 5.9 µM | 1.3 | 0.258 µM | 1.4 | 8.4 µM | –
9 | C#CCN(C)Cc1cc2cc(OCc3ccc(OC)c4ncccc34)ccc2[nH]1 | 165 µM | – | – | 630 µM | – | – | inhibition [10]: inactive; inhibition [9]: inactive
10 | C#CCN(C)Cc1cc2cc(OCCCC3CCN(Cc4ccccc4C)CC3)ccc2n1C | 0.184 µM | 4.9 µM | 0.03 | – | – | 2.8 µM | inhibition (INH) [11]: 90%; Activity [12]: 20%; IC50 [13]: 6.3 µM; inhibition (INH) [14]: 90%; Papp [15]: 14.4 ×10⁻⁶ cm/s; Activity [16]: 20%
11 | C#CCNCc1cc2cc(OCc3ccccc3)ccc2[nH]1 | 0.0041 µM | – | 70 | 0.287 µM | – | – | –
12 | C#CCN(C)Cc1cc2cc(OCCCC3CCN(Cc4ccccc4)CC3)ccc2[nH]1 | 35.1 µM | 7.1 µM | 0.26 | 9.1 µM | 2.2 | 15.4 µM | –
13 | C#CCN(C)Cc1cc2cc(OCCCC3CCN(Cc4ccccc4)CC3)ccc2n1C | 1.2 µM | 3.3 µM | 0.05 | 0.0582 µM | 1.03 | 3.4 µM | –
